Data on five compounds can be found in PMC6253998, “Ring-substituted 4-Hydroxy-1H-quinolin-2-ones: Preparation and Biological Activity” (Molecules, 2009).

The test system of data set [1] is spinach chloroplasts. In words: Inhibition of oxygen evolution rate (OER) / photosynthetic electron transport in spinach chloroplasts. The data set is classed as biochemical, Spinacia oleracea L. The settings on record: DCPIP photoreduction, pH 7.2. As to the method: Chloroplasts were prepared from spinach (Spinacia oleracea L.) according to Masarovicova and Kralova. The inhibition of photosynthetic electron transport (PET) in spinach chloroplasts was determined spectrophotometrically (Genesys 6, Thermo Scientific, U.S.A.) using an artificial electron acceptor 2,6-dichlorophenol-indophenol (DCPIP) according to Kralova et al. and the rate of photosynthetic electron transport was monitored as a photoreduction of DCPIP. The measurements were carried out in phosphate buffer (0.02 mol/L, pH 7.2) containing sucrose (0.4 mol/L), MgCl2 (0.005 mol/L) and NaCl (0.015 mol/L). The chlorophyll content was 30 mg/L in these experiments and the samples were irradiated (~100 W/m^2) from 10 cm distance with a halogen lamp (250 W) using a 4 cm water filter to prevent warming of the samples (suspension temperature 22 °C). The studied compounds were dissolved in DMSO due to their limited water solubility. […] The inhibitory efficiency of the studied compounds was expressed by IC50 values, i.e. by molar concentration of the compounds causing 50% decrease in the oxygen evolution rate relative to the untreated control.

The subject of another data set is eight fungal strains. The experiment in a line: In vitro antifungal screening, overall verdict. The note with it: especially against Candida albicans ATCC 44859. The data set is classed as cell-based. The method, then:
(§1) The broth microdilution test was used for the assessment of in vitro antifungal activity of the synthesized compounds against Candida albicans ATCC 44859 (CA), Candida tropicalis 156 (CT), Candida krusei ATCC 6258 (CK), Candida glabrata 20/I (CG), Trichosporon beigelii 1188 (TB), Aspergillus fumigatus 231 (AF), Absidia corymbifera 272 (AC), and Trichophyton mentagrophytes 445 (TM). Fluconazole (FLU) was used as the standard of a clinically used antimycotic drug. The procedure was performed with twofold dilution of the compounds in RPMI 1640 (Sevapharma a.s., Prague, Czech Republic) buffered to pH 7.0 with 0.165 mol of 3-morpholino-propane-1-sulfonic acid (MOPS, Sigma, Germany). The final concentrations of the compounds ranged from 500 to 0.975 μmol/l. Drug–free controls were included. The MIC was defined as an 80% or greater (IC80) reduction of growth in comparison with the control. The values of MICs were determined after 24 and 48 h of static incubation at 35 °C. For T. mentagrophytes, the final MICs were determined after 72 and 120 h of incubation.

The subject of data set [2] is Trichosporon beigelii 1188. In words: In vitro antifungal broth microdilution test. It is filed as cell-based. The note with it: RPMI 1640, pH 7.0, 35 °C; for MIC: Trichosporon beigelii, 1188, read-out: MIC/IC80 TB. As to the method: as §1
(In general: Dilution methods test growth across graded concentrations, often in twofold steps.)

The subject of another data set is Candida tropicalis 156. In words: In vitro antifungal broth microdilution test. It is filed as cell-based. The settings on record: RPMI 1640, pH 7.0, 35 °C; for MIC: Candida tropicalis, 156, read-out: MIC/IC80 CT. As to the method: (§2) Fluconazole (FLU) was used as the standard of a clinically used antimycotic drug. The procedure was performed with twofold dilution of the compounds in […]., Prague, Czech Republic) buffered to pH 7.0 with 0.165 mol of 3-morpholino-propane-1-sulfonic acid (MOPS, Sigma, Germany). […] Drug-free controls were included. The MIC was defined as an 80% or greater (IC80) reduction of growth in comparison with the control.

The subject of data set [3] is Trichophyton mentagrophytes 445. In words: In vitro antifungal broth microdilution test. The data set is classed as cell-based. The note with it: for MIC: Trichophyton mentagrophytes, 445, read-out: MIC/IC80 TM; for MIC / MIC/IC80 TM: RPMI 1640, pH 7.0, 35 °C. As to the method: as §2
A further data set concerns Absidia corymbifera 272. The experiment in a line: In vitro antifungal broth microdilution test. The data set is classed as cell-based. The settings on record: RPMI 1640, pH 7.0, 35 °C; for MIC: Lichtheimia corymbifera, 272, read-out: MIC/IC80 AC. As to the method:
as §2

A further data set relates to Candida glabrata 20/I. The experiment in a line: In vitro antifungal broth microdilution test. It is filed as cell-based. The note with it: for MIC: Nakaseomyces glabratus, 20/I, read-out: MIC/IC80 CG; for MIC / MIC/IC80 CG: RPMI 1640, pH 7.0, 35 °C. The method, then:
as §2

The next data set has as its system Candida krusei ATCC 6258. The experiment in a line: In vitro antifungal broth microdilution test. The note with it: RPMI 1640, pH 7.0, 35 °C; for MIC: Pichia kudriavzevii, ATCC6258, read-out: MIC/IC80 CK. It is filed as cell-based. As to the method:
as §2

For data set [4], the system named is Aspergillus fumigatus 231. In words: In vitro antifungal broth microdilution test. It is filed as cell-based. The note with it: RPMI 1640, pH 7.0, 35 °C; for MIC: Aspergillus fumigatus, 231, read-out: MIC/IC80 AF. The method, then: as §2
Data set [5] has as its system Candida albicans ATCC 44859. In words: In vitro antifungal broth microdilution test. The data set is classed as cell-based. The settings on record: RPMI 1640, pH 7.0, 35 °C; for MIC: Candida albicans, ATCC44859, read-out: MIC/IC80 CA. The method, then: as §2
The nature of data set [6]: Lipophilicity HPLC determination (capacity factor k / log k). The data set is classed as physicochemical. The settings on record: RP-HPLC, C18 column, MeOH 55.0% / H2O 45.0%, isocratic. As to the method: Hydrophobicities (log P/Clog P values) of the compounds 1-12 were calculated using two commercially available programs and also measured by means of the reversed phase high performance liquid chromatography (RP-HPLC) method for lipophilicity measurement. The procedure was performed under isocratic conditions with methanol as an organic modifier in the mobile phase using an end-capped non-polar C18 stationary RP column. The capacity factors k were determined and subsequent log k values were calculated.
The HPLC separation module Waters Alliance 2695 XE and Waters Photodiode Array Detector 2996 (Waters Corp., Milford, MA, U.S.A.) were used. A Symmetry® C18 5 μm, 4.6 × 250 mm, Part No. WAT054275, (Waters Corp., Milford, MA, U.S.A.) chromatographic column was used. The HPLC separation process was monitored by Millennium32® Chromatography Manager Software, Waters 2004 (Waters Corp., Milford, MA, U.S.A.). The mixture of MeOH p.a. (55.0%) and H2O-HPLC – Mili-Q Grade (45.0%) was used as a mobile phase. The total flow of the column was 0.9 mL/min, injection 30 μL, column temperature 30 °C and sample temperature 10 °C. The detection wavelength 210 nm was chosen. The KI methanolic solution was used for the dead time (TD) determination. Retention times (tR) were measured in minutes. The capacity factors k were calculated using the Millennium32® Chromatography Manager Software according to formula k = (tR - tD) / tD, where tR is the retention time of the solute, whereas tD denotes the dead time obtained via an unretained analyte. Log k, calculated from the capacity factor k, is used as the lipophilicity index converted to log P scale.

Data set [7] has as its system spinach chloroplasts. More on the design: method as in earlier work. The note with it: standard, read-out: OER inhibition IC50; cited from earlier work.

The term IC50 denotes the concentration that gives 50% inhibition.

Converted amounts (≈) assume the structure as drawn. “And” between values parts separate entries of the source, which are not always exact repeats. Equal entries are not always repeated. Where two headings read alike, the source gives them in different places. A value given as a limit tells only on which side of the number the result lay.

In the data set with spinach chloroplasts [1], `O=C(O)c1cc2c(O)cc(=O)[nH]c2cc1O` [Compound 4, 4,7-Dihydroxy-2-oxo-1,2-dihydroquinoline-6-carboxylic acid] displayed an IC50 of 538 µM. In the data set with eight fungal strains, the “in vitro antifungal activity (in words)” value is “only a moderate activity”. Also, the MIC in data set [2] (24h) is 62.5 µM (≈ 13.8 µg/mL); in [2] (48h) it was over 500 µM; with Candida tropicalis 156 (24h), 500 µM (≈ 111 µg/mL); in the data set with Candida tropicalis 156 (48h) it was over 500 µM; in data set [3] (72h), over 500 µM; in data set [3] (120h), over 500 µM. The MIC is over 500 µM in the data set on Absidia corymbifera 272 (24h); over 500 µM in the data set with Absidia corymbifera 272 (48h); 62.5 µM (≈ 13.8 µg/mL) in the data set with Candida glabrata 20/I (24h); 250 µM (≈ 55.3 µg/mL) in the data set with Candida glabrata 20/I (48h); over 500 µM with Candida krusei ATCC 6258 (24h); over 500 µM with Candida krusei ATCC 6258 (48h). The MIC in [4] (24h) is 500 µM (≈ 111 µg/mL); in [4] (48h), over 500 µM; in data set [5] (24h) it was 15.6 µM (≈ 3.45 µg/mL); in data set [5] (48h), 62.5 µM (≈ 13.8 µg/mL). The “antifungal activity against Candida glabrata 20/I (in words)” value in the data set on Candida glabrata 20/I is recorded as “medium activity”. In data set [6], this compound gave a log k of 0.0080.

As to `O=C(O)c1ccc2[nH]c(=O)c(/N=N/c3cc(Cl)c([N+](=O)[O-])cc3Cl)c(O)c2c1` [Compound 8, (E)-3-[(2,5-Dichloro-4-nitrophenyl)diazenyl]-4-hydroxy-2-oxo-1,2-dihydroquinoline-6-carboxylic acid], 126 µM corresponded to half-maximal inhibition in the data set on spinach chloroplasts [1] (IC50). Further, in the data set on eight fungal strains, the “in vitro antifungal activity (in words)” value was “only a moderate activity”. In addition, the MIC in data set [2] (24h) is 250 µM (≈ 106 µg/mL); in data set [2] (48h) it was over 250 µM; with Candida tropicalis 156 (24h), 250 µM (≈ 106 µg/mL); in the data set on Candida tropicalis 156 (48h) it was over 250 µM; in data set [3] (72h), 62.5 µM (≈ 26.4 µg/mL); in data set [3] (120h), 125 µM (≈ 52.9 µg/mL). Also, the MIC in the data set on Absidia corymbifera 272 (24h) was 62.5 µM (≈ 26.4 µg/mL); in the data set with Absidia corymbifera 272 (48h), 250 µM (≈ 106 µg/mL); in the data set on Candida glabrata 20/I (24h) it was 250 µM (≈ 106 µg/mL); in the data set with Candida glabrata 20/I (48h), over 250 µM; with Candida krusei ATCC 6258 (24h), 250 µM (≈ 106 µg/mL); with Candida krusei ATCC 6258 (48h) it was 250 µM (≈ 106 µg/mL). For the same compound, the MIC in [4] (24h) stood at 125 µM (≈ 52.9 µg/mL); in data set [4] (48h) it was 250 µM (≈ 106 µg/mL); in [5] (24h) it was 31.2 µM (≈ 13.2 µg/mL); in [5] (48h) it was 125 µM (≈ 52.9 µg/mL). For the same compound, the “antifungal activity against Trichophyton mentagrophytes 445 (in words)” value in [3] was “medium activity”. The log k in data set [6] came to 0.6394.

With `O=C(/C=C/c1ccccc1)Nc1c(O)c2ccccc2[nH]c1=O` [Compound 7, (2E)-N-(4-Hydroxy-2-oxo-1,2-dihydroquinolin-3-yl)-3-phenylprop-2-enamide], 916 µM corresponded to half-maximal inhibition with spinach chloroplasts [1] (IC50). For the same compound, the MIC (in data set [2] (24h); in data set [2] (48h); with Candida tropicalis 156 (24h); with Candida tropicalis 156 (48h); in data set [3] (72h); in data set [3] (120h)) was over 125 µM throughout. Besides, the MIC with Absidia corymbifera 272 (24h), in the data set on Absidia corymbifera 272 (48h), in the data set on Candida glabrata 20/I (24h), in the data set on Candida glabrata 20/I (48h), with Candida krusei ATCC 6258 (24h) and in the data set with Candida krusei ATCC 6258 (48h) was over 125 µM throughout. For the same compound, the MIC in data set [4] (24h), in data set [4] (48h), in [5] (24h) and in data set [5] (48h) was over 125 µM throughout. This compound registered a log k in data set [6] of 0.0128.

Consider `CN(C)C(=O)Nc1ccc(Cl)c(Cl)c1` [DCMU, 3-(3,4-dichlorophenyl)-1,1-dimethylurea], for which, in the data set with spinach chloroplasts [7], the IC50 was ~1900 nM and 1900 nM.

Consider “3-(4-Carboxy-3-hydroxyphenylcarbamoyl)-4-hydroxy-2-oxo-1,2-dihydroquinoline-6-carboxylic acid [Compound 12]”, for which it took 321 µM to reach half-maximal inhibition with spinach chloroplasts [1] (IC50). In addition, in the data set on eight fungal strains, the “in vitro antifungal activity (in words)” value was “only a moderate activity”. The “MIC/IC80 TB” value in data set [2] (24h) was 125 µmol/L; in [2] (48h), over 500 µmol/L. For the same compound, the “MIC/IC80 CT” value against Candida tropicalis 156 (24h) is given as 500 µmol/L; with Candida tropicalis 156 (48h), over 500 µmol/L. In addition, the “MIC/IC80 TM” value in [3] (72h) was 500 µmol/L; in data set [3] (120h), over 500 µmol/L. Moreover, the “MIC/IC80 AC” value in the data set on Absidia corymbifera 272 (24h) is 500 µmol/L; in the data set with Absidia corymbifera 272 (48h), over 500 µmol/L. The “MIC/IC80 CG” value against Candida glabrata 20/I (24h) turned out to be 125 µmol/L; against Candida glabrata 20/I (48h), 250 µmol/L. In addition, the “MIC/IC80 CK” value against Candida krusei ATCC 6258 (24h) and with Candida krusei ATCC 6258 (48h) was over 500 µmol/L throughout. Also, the “MIC/IC80 AF” value in data set [4] (24h) is on record as 500 µmol/L; in data set [4] (48h), over 500 µmol/L. Further, the “MIC/IC80 CA” value in [5] (24h) amounted to 62.50 µmol/L; in data set [5] (48h), 125 µmol/L. The compound also registered a log k in data set [6] of 0.0093.
